Columns and labels:
[1] = target: T1, 2-Hydroxyacid oxidase 1 (Homo sapiens, UniProt Q9UJM8); test: Inhibition of recombinant human liver HAOX1 using glycolate as substrate preincubated for 5 mins followed by substrate addition in presence of […]
T1 sequence (Q9UJM8 whole entry): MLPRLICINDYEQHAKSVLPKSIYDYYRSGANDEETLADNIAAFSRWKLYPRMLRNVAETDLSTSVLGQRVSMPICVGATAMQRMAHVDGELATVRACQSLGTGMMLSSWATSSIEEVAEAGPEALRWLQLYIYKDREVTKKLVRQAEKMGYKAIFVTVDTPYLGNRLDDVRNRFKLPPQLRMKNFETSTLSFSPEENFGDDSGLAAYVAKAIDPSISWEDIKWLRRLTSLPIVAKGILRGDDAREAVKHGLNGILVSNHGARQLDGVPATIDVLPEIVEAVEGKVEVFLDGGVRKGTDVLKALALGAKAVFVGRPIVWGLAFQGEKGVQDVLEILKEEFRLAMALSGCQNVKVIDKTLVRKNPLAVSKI

[2] = target: T2, Hydroxyproline dehydrogenase (Homo sapiens, UniProt Q9UF12); test: Inhibition of recombinant human HYPDH expressed in Escherichia coli using hydroxyproline as substrate preincubated for 5 mins followed by substrate addition in presence of FAD as cofactor
T2 sequence (Q9UF12 whole entry): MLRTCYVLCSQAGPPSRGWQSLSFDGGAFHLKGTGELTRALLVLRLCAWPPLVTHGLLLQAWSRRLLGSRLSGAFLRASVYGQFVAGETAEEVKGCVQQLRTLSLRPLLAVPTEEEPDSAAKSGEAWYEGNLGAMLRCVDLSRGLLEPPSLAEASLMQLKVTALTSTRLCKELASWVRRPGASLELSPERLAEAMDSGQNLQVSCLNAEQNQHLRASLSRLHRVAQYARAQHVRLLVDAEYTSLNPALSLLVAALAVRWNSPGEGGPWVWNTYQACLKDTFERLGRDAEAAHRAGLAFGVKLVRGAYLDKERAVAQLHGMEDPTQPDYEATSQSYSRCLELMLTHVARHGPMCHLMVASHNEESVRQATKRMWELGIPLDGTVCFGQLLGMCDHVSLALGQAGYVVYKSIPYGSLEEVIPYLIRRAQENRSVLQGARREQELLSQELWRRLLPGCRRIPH

Row | Structure (SMILES) | IC50 ([2]; read-out: IC50) | also measured
1 | CCCCCCCCCCCCSc1[nH]nnc1C(=O)O |  | Ki [1]: 0.015 µM
2 | O=C(O)c1ccco1 |  | IC50 [2]: Nd(Insoluble)
3 | O=C(O)C1=NN=C(O)C1 | 2900 µM | 
4 | O=C(O)[C@H]1CC[C@H](O)C1 | 600 µM | 
5 | O=C(O)[C@@H]1C[C@H](O)CS1 | 370 µM | 
6 | O=C(O)[C@@H]1CC[C@@H](O)C1 | 2100 µM | 
7 | O=C(O)C1CCCO1 (stereo unspecified) | 1500 µM | 
8 | O=C1CC[C@@H](C(=O)O)C1 | 370 µM | 
9 | O=C(O)c1cc(O)cs1 | < 1000 µM | 
10 | O=C(O)[C@@H]1C[C@@H](O)CS1 | 330 µM | 
11 | O=C1CC[C@H](C(=O)O)C1 | 380 µM | 
12 | O=C(O)[C@@H]1CC(O)(O)CS1 | 290 µM | 
13 | O=C(O)C[C@H]1CC[C@H](O)C1 | 480 µM | 
14 | O=C1CS[C@H](C(=O)O)C1 | 320 µM | 
15 | N[C@H]1CC[C@H](C(=O)O)C1 | 630 µM | 
16 | O=C(O)[C@H]1CC[C@@H](O)C1 | > 10000 µM | 

— ChEMBL document CHEMBL4418304, “Combinations for the treatment of kidney stones” (2017)
